Assay results from US6403597B1, “Administration of phosphodiesterase inhibitors for the treatment of premature ejaculation” (Vivus, Inc., priority 1997, dated 2002).

Assays:
[1] = system: heterosexual men suffering from primary premature ejaculation; experiment: Double-blind randomized crossover study of orally administered active agents in treating premature ejaculation (efficacy measures); assay type: in vivo; parameters: Anxiety score, Median: scale not given here; details: for comparison between treatments in ejaculation latency time and sexual satisfaction score, in words: Wilcoxon signed rank test; for IVELT, Range / Anxiety score, Range: after four-week as-needed oral treatment; for IVELT, Range: baseline range 0.5-1.5; for Anxiety score, Range: baseline range 5-25; for Anxiety score, Median / Sexual satisfaction score, Median / Sexual satisfaction score, Range: after four-week treatment; for Anxiety score, Median: oral, as needed 3 to 5 hours before intercourse, clomipramine 25 mg, sertraline 50 mg, paroxetine 20 mg, sildenafil citrate 50 mg, baseline median 12; for median intravaginal ejaculation latency time: after four-week treatments, pretreatment median 1 minutes, all P<0.0001; for Sexual satisfaction score, Median / Sexual satisfaction score, Range: first nine items of EDITS questionnaire; for Sexual satisfaction score, Median: higher scores = greater satisfaction; for IVELT, Median: intravaginal ejaculation latency time after four-week as-needed oral treatment, baseline median 1; for delay of intravaginal ejaculation latency time, in words: treatment on an as needed basis; for IVELT during washout periods, Median / IVELT during washout periods, Range: two-week washout period after the treatment
Protocol: (§1) A double-blind randomized crossover study was performed with 31 heterosexual men suffering from primary premature ejaculation, defined for the purpose of the study as an intravaginal ejaculation latency time (IVELT) of less than 2 minutes. Exclusion criteria included the following: (a) history of a psychiatric disorder; (b) current physical illness; (c) previous surgery or drug therapy with an active agent known to affect sexual function; (d) current substance abuse; (e) patients with secondary premature ejaculation combined with erectile dysfunction. All patients were asked not to use condoms or topical penile applications.
(§2) Treatment phases comprised five four-week consecutive treatment periods, each separated by a two-week washout period. […] The patients were randomly assigned to receive clomipramine hydrocloride (25 mg), sertraline hydrochloride (50 mg), paroxetine hydrochloride (20 mg), or sildenafil citrate (50 mg), or instructed to use the pause-squeeze technique developed by Masters and Johnson (Masters and Johnson, Human Sexual Inadequacy, Little, Brown & Company, Boston, Mass., 1970). The drugs were administered as needed 3 to 5 hours before planned intercourse and not more than twice a week. The pause-squeeze technique was used during intercourse. Each patient was randomly assigned to receive any of the available treatments as the first treatment and a sequence of treatment regimens. The assignment was unknown by the patient. Subjects were asked to complete a questionnaire regarding intravaginal ejaculation latency time of the last two consecutive experiences of intercourse, frequency of intercourse and possible side effects. The first nine items of the sexual satisfaction questionnaire designed by Althof et al. (Althof et al.(1999), “EDITS: Development of Questionnaires for Evaluating Satisfaction with Treatment for Erectile Dysfunction,” Urology 53:[…]) was used to measure the degree of sexual satisfaction, with higher scores indicating greater satisfaction. All measurements were obtained before treatment, after each treatment and after each washout period. Twenty healthy men who reported a sexual history free of symptoms of premature ejaculation served as a control group.
(§3) Statistical analysis: The variables in this study were statistically processed using the SPSS program for MicroSoft Windows®, standard version, release 8.0. The data were subjected to the Kolmogorov-Smirnov one-sample test, to test for normal distribution. […] Nonparametric statistical tests were used to assess differences in the measurements. Friedman's two-way analysis of variance was used for comparison between all the treatment periods. Wilcoxon signed rank test was used for evaluation of measures between baseline and after each treatment and also between every two treatment periods. The relationship between parameters was quantified by using the Spearman rank correlation coefficient. Chi-square and Fisher exact tests were used for comparison of the incidence of side effects among different treatments. Student's t-test and Chi-square test were used for comparison between the study group and control group. A two-tailed P-value <0.05 was considered significant.

[2] = system: heterosexual men suffering from primary premature ejaculation; details: male, human, in vivo, 4 weeks; for No. patients with side effects / patients with side effects (%): po
Protocol: as §1, §2, §3

| SMILES | comparison between treatments in ejaculation latency time and sexual satisfaction score, in words [1] | IVELT, Range [1] | Anxiety score, Range [1] | Anxiety score, Median [1] | median intravaginal ejaculation latency time [1] [min] | Sexual satisfaction score, Median [1] | Sexual satisfaction score, Range [1] | IVELT, Median [1] [min] | patients with prolongation of IVELT (%) ([1]; of 31 men) | delay of intravaginal ejaculation latency time, in words [1] | IVELT during washout periods, Median [1] [min] | IVELT during washout periods, Range [1] | Side effects (no.): drowsiness [2] | Side effects (no.): nausea [2] | No. patients with side effects [2] | patients with side effects (%) [2] [%] | Side effects (no.): dry mouth [2] | further results |
| --- | --- | --- | --- | --- | --- | --- | --- | --- | --- | --- | --- | --- | --- | --- | --- | --- | --- | --- |
| CN[C@H]1CC[C@@H](c2ccc(Cl)c(Cl)c2)c2ccccc21 [Sertraline, sertraline] | more or less equivalent to each other | (1-10) min | (5-22) | 11 | 3 | 10 | (0-31) | 3 | 71.2% | statistically significant and clinically relevant delay | 1 | (0.5-2) min | 1 | 1 | 3 | 10.3 |  | Side effects (no.): anorexia [2]: 1 |
| CN(C)CCCN1c2ccccc2CCc2ccc(Cl)cc21 [Clomipramine, clomipramine] | more or less equivalent to each other | (1-8) min | (4-22) | 11 | 4 | 11 | (0-25) | 4 | 71% | statistically significant and clinically relevant delay | 1 | (0.5-1.5) min | 1 | 1 | 7 | 25 | 3 | Side effects (no.): sleepiness [2]: 2 |
| CCCc1nn(C)c2c(=O)[nH]c(-c3cc(S(=O)(=O)N4CCN(C)CC4)ccc3OCC)nc12 [Sildenafil, 5-[2-ethoxy-5-(4-methyl-1-piperazinylsulphonyl)phenyl]-1-methyl-3-n-propyl-1,6-dihydro-7H-pyrazolo[4,3-dipyrimidin-7-one]] |  | (5-30) min | (4-15) | 8 | 15 | 30 | (17-34) | 15 | over 90% | statistically significant and clinically relevant delay | 1.75 | (0.5-8) min |  |  | 5 | 17.9 |  | median IVELT, median sexual satisfaction score and median IVELT during the washout period, according to Friedman's test, in words ([1]; comparison between all treatment periods): significant increase; effectiveness in the treatment of premature ejaculation, in words ([1]; in vivo): highly effective; patients with prolongation of IVELT (number of patients) ([1]; of 31 men): 28 patients; patients with prolongation of IVELT (%) ([1]; of 31 men, listed as sildenafil): 90.3%; factor by which IVELT was increased, on average ([1]; versus pretreatment): 15; Side effects (no.): flushing [2]: 2; Side effects (no.): headache [2]: 2; Side effects (no.): nasal congestion [2]: 1 |
| Fc1ccc([C@@H]2CCNC[C@H]2COc2ccc3c(c2)OCO3)cc1 [Paroxetine, paroxetine] | superior to the pause-squeeze technique | (2-10) min | (5-23) | 9 | 4 | 12 | (0-29) | 4 | 80.6% | statistically significant and clinically relevant delay | 1 | (0.5-2) min |  | 1 | 5 | 17.2 | 2 | comparison between treatments in ejaculation latency time and sexual satisfaction score, in words ([1]; listed as paroxetine): more or less equivalent to each other; Side effects (no.): yawning [2]: 2 |
